We go through 29 molecules from PubChem BioAssay (NCI).

The structures appear in SMILES notation.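 Cultured in 96-well plates, cells were exposed to test compound for 48 hours across five concentrations. Here, GI50 denotes the concentration required for 50% inhibition of growth. TGI: total growth inhibition.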 Where only a bound is given, the exact number is not on record here.

One experiment has as its system 786-0 renal. Briefly: growth of human tumour cells (NCI), 48 h.
Consider `CC(C)C(=O)NS(=O)(=O)c1ccccc1`, for which the TGI is over 100 µM.

With `COC1(OC)CC2C(=O)N(Cc3ccccc3)C1C=C2S(=O)(=O)c1ccccc1` (centres undefined), the TGI turned out to be 38.2 µM.

Turning to `CC(=O)[O][Ga]([Br])[O]C(C)=O`, the GI50 is over 100 µM and the TGI was over 100 µM.

As for `COc1cc2c(OC)cc1CSCc1sc(C)c(c1Br)CSC2`, the TGI is over 100 µM.

On to `CC(C)N(C(=O)C12C3C4C1(I)C1C2C3(I)C41C(=O)N(C(C)C)C(C)C)C(C)C` (centres undefined), for which the TGI is over 64.4 µM.

The molecule `Cc1cccc(C)c1NC(=O)C(=O)C(C(=O)c1ccccc1-c1ccccc1)C1OC(=O)c2ccccc21` (centres undefined) registered a TGI of 37 µM.

`CC1COC(C)(C)P(=O)(c2ccccc2)C1` (centres undefined): the TGI was over 100 µM.

For `Cc1ccc(S(=O)(=O)c2ccc(N)cc2)cc1`, the TGI is over 100 µM.

For `CCOP(=O)(OCC)OC1C=CC2CCC1C2` (centres undefined), the TGI was over 100 µM.

As for `COC(=O)[C@H]1C=C[C@@H](C)n2c(=O)c3cc4ccccc4cc3c(=O)n21`, the TGI was over 100 µM.

Take `COc1cc(C=O)c(-c2cc(OC)c(OC)cc2C=O)cc1OC`: the TGI is over 100 µM.

Consider `N#CC(C(=O)C(=O)Nc1ccc(Cl)cc1)c1ccccc1` (centres undefined), for which the TGI is over 100 µM.

Turning to `COc1cc(C(=O)N2CCN(c3ncccn3)CC2)c(N)cc1OCc1ccccc1`, the GI50 was over 100 µM and the TGI was over 100 µM.

As for `COc1c[c]([Hg][O]C(C)=O)c(OC)c(NC(=O)CC(C)=O)[c]1[Hg][O]C(C)=O`, the GI50 is 2.48 µM and the TGI is 7.71 µM.

Consider `COC(=O)/C=C1\CCC(C)O1` (centres undefined), for which the TGI is over 100 µM.

Molecule `O=C(/C=C/c1ccccc1Cl)NC1C=Nc2ccc([N+](=O)[O-])cc2NC1` (centres undefined) showed a TGI of over 100 µM.

`CCCO/S(=N\S(=O)(=O)c1ccccc1)c1ccccc1[N+](=O)[O-]` (centres undefined) showed a TGI of over 100 µM.

Molecule `Cc1ccc(C)c(N=C2NC(=O)C(CC(=O)Nc3ccc(Cl)cc3Cl)S2)c1` (centres undefined) returned a TGI of over 100 µM.

`C/C(CC(=O)Nc1cccc(Cl)c1C)=N\NC(=O)c1ccncc1` returned a TGI of over 100 µM.

`Cc1cc(NS(=O)(=O)c2ccc(Nc3c4ccccc4nc4c(C(=O)N5CCN(CCO)CC5)ccc(Cl)c34)cc2)no1` displayed a TGI of over 100 µM.

For `COc1ccc(-c2ccc(-c3ccc(C(=N)N)s3)s2)cc1`, the GI50 was 0.187 µM and the TGI was determined as 0.378 µM.

Take `Cc1nc([N+](=O)[O-])cn1CC(=N)N`: the TGI is over 100 µM.

As for `COC(=O)/C=C/c1c(CC=C(C)C)ncn1C`, the TGI is over 100 µM.

Molecule `CC(C)C(=O)Nc1nc2c(ncn2C2OC(CO)C(O)C2O)c(=O)[nH]1` (centres undefined) yielded a TGI of over 100 µM.

As to `O=S(=O)(c1ccccc1)C1CN2OC1(S(=O)(=O)c1ccccc1)CC2c1ccc(Br)cc1` (centres undefined), the TGI is over 100 µM.

`O=Cc1ccc2c(c1-c1c(C=O)ccc3c1OCO3)OCO2` registered a TGI of over 100 µM.

In turn, `CC(=O)O[C@H]1CCC2[C@@H]3CCC4Nc5[nH]ncc5C[C@]4(C)C3CC[C@@]21C` (some centres undefined) showed a TGI of over 100 µM.

In the case of `Cc1cc(C)nc(NS(=O)(=O)c2ccc(NC(=O)c3cccc4c(Nc5ccc(S(N)(=O)=O)cc5)c5ccccc5nc34)cc2)n1`, the TGI was over 100 µM.

`Cc1cc(S(=O)(=O)O)c(NC(=O)C(=O)Cc2cc(=O)oc3cc(O)ccc23)cc1Cl` gave a TGI of over 100 µM.

The next experiment deals with COLO 205 colon. Briefly: growth of human tumour cells (NCI), 48 h.
As to `CC(C)C(=O)NS(=O)(=O)c1ccccc1`, the TGI was over 100 µM.

For the molecule `COC1(OC)CC2C(=O)N(Cc3ccccc3)C1C=C2S(=O)(=O)c1ccccc1` (centres undefined), the TGI amounted to 22 µM.

Consider `CC(=O)[O][Ga]([Br])[O]C(C)=O`, for which the GI50 was over 100 µM and the TGI was over 100 µM.

The molecule `COc1cc2c(OC)cc1CSCc1sc(C)c(c1Br)CSC2` came in with a TGI of over 100 µM.

`CC(C)N(C(=O)C12C3C4C1(I)C1C2C3(I)C41C(=O)N(C(C)C)C(C)C)C(C)C` (centres undefined) displayed a TGI of over 100 µM.

In turn, `Cc1cccc(C)c1NC(=O)C(=O)C(C(=O)c1ccccc1-c1ccccc1)C1OC(=O)c2ccccc21` (centres undefined) came in with a TGI of 37.9 µM.

In turn, `CC1COC(C)(C)P(=O)(c2ccccc2)C1` (centres undefined) returned a TGI of over 100 µM.

`CCOP(=O)(OCC)OC1C=CC2CCC1C2` (centres undefined) came in with a TGI of over 100 µM.

Regarding `COC(=O)[C@H]1C=C[C@@H](C)n2c(=O)c3cc4ccccc4cc3c(=O)n21`, the TGI is over 100 µM.

As for `COc1cc(C=O)c(-c2cc(OC)c(OC)cc2C=O)cc1OC`, the TGI was over 100 µM.

Regarding `N#CC(C(=O)C(=O)Nc1ccc(Cl)cc1)c1ccccc1` (centres undefined), the TGI is over 100 µM.

On to `COc1cc(C(=O)N2CCN(c3ncccn3)CC2)c(N)cc1OCc1ccccc1`, for which the GI50 was over 100 µM and the TGI was over 100 µM.

As for `COc1c[c]([Hg][O]C(C)=O)c(OC)c(NC(=O)CC(C)=O)[c]1[Hg][O]C(C)=O`, the GI50 was 2.37 µM.

Regarding `COC(=O)/C=C1\CCC(C)O1` (centres undefined), the TGI was over 100 µM.

As for `O=C(/C=C/c1ccccc1Cl)NC1C=Nc2ccc([N+](=O)[O-])cc2NC1` (centres undefined), the TGI was over 100 µM.

`CCCO/S(=N\S(=O)(=O)c1ccccc1)c1ccccc1[N+](=O)[O-]` (centres undefined) yielded a TGI of over 100 µM.

For the molecule `Cc1ccc(C)c(N=C2NC(=O)C(CC(=O)Nc3ccc(Cl)cc3Cl)S2)c1` (centres undefined), the TGI was over 100 µM.

In the case of `C/C(CC(=O)Nc1cccc(Cl)c1C)=N\NC(=O)c1ccncc1`, the TGI was over 100 µM.

`Cc1cc(NS(=O)(=O)c2ccc(Nc3c4ccccc4nc4c(C(=O)N5CCN(CCO)CC5)ccc(Cl)c34)cc2)no1` showed a TGI of over 100 µM.

For the molecule `COc1ccc(-c2ccc(-c3ccc(C(=N)N)s3)s2)cc1`, the GI50 was 0.309 µM and the TGI came to 0.916 µM.

As for `Cc1nc([N+](=O)[O-])cn1CC(=N)N`, the TGI is over 100 µM.

In turn, `COC(=O)/C=C/c1c(CC=C(C)C)ncn1C` registered a TGI of over 100 µM.

With `CC(C)C(=O)Nc1nc2c(ncn2C2OC(CO)C(O)C2O)c(=O)[nH]1` (centres undefined), the TGI was over 100 µM.

For the molecule `O=Cc1ccc2c(c1-c1c(C=O)ccc3c1OCO3)OCO2`, the TGI was over 100 µM.

Molecule `CC(=O)O[C@H]1CCC2[C@@H]3CCC4Nc5[nH]ncc5C[C@]4(C)C3CC[C@@]21C` (some centres undefined) came in with a TGI of over 100 µM.

For `Cc1cc(C)nc(NS(=O)(=O)c2ccc(NC(=O)c3cccc4c(Nc5ccc(S(N)(=O)=O)cc5)c5ccccc5nc34)cc2)n1`, the TGI was over 62.5 µM.

The molecule `Cc1cc(S(=O)(=O)O)c(NC(=O)C(=O)Cc2cc(=O)oc3cc(O)ccc23)cc1Cl` yielded a TGI of over 100 µM.

The next experiment concerns HL-60(TB) leukemia. Briefly: growth of human tumour cells (NCI), 48 h.
In turn, `CC(C)C(=O)NS(=O)(=O)c1ccccc1` came in with a TGI of over 100 µM.
